{
  "source": "patent US9113629B2",
  "about": "“4-amino-6-(4-substituted-phenyl)-picolinates and 6-amino-2-(4-substituted-phenyl)-pyrimidine-4-carboxylates and their use as herbicides” (DOW AGROSCIENCES LLC, priority 2013, dated 2015)",
  "key": {"[1]": {"assay": "Post-emergent Test III, herbicidal activity in wheat and barley", "assay_type": "in vivo, Lolium multiflorum, Lolium rigidum", "conditions": "Lolium multiflorum, post-emergence, 504 h, read-out: Visual Growth Reduction (%) 21 Days After Application LOLSS", "how_it_was_run": "(§1)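 Plants at the second to third true-leaf stage, grown in a greenhouse at about 18/17 °C with a 14 h photoperiod, were sprayed post-emergence at 187 L/ha with the high rate and ½× to 1/16× serial dilutions in an acetone/DMSO/crop-oil/surfactant carrier. Injury was rated visually at 21 d on a 0–100% scale, and GR20–GR90 were derived by probit analysis.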"}, "[2]": {"tested_on": "ALOMY: black-grass (Alopecurus myosuroides)", "assay": "Post-emergent Test III, herbicidal activity in wheat and barley", "assay_type": "in vivo", "how_it_was_run": "as §1"}, "[3]": {"tested_on": "APESV: bentgrass (Apera spica-venti)", "assay": "Post-emergent Test III, herbicidal activity in wheat and barley", "assay_type": "in vivo", "how_it_was_run": "as §1"}, "[4]": {"tested_on": "HORSS: barley, including spring and winter (Hordeum vulgare)", "assay": "Post-emergent Test III, herbicidal activity in wheat and barley", "assay_type": "in vivo", "how_it_was_run": "as §1"}, "[5]": {"tested_on": "KCHSC: kochia (Kochia scoparia)", "assay": "Post-emergent Test III, herbicidal activity in wheat and barley", "assay_type": "in vivo", "how_it_was_run": "as §1"}, "LAMSS": {"tested_on": "LAMSS", "assay": "Post-emergent Test III, herbicidal activity in wheat and barley", "assay_type": "in vivo", "how_it_was_run": "as §1"}, "[6]": {"tested_on": "LOLSS: ryegrass including, Italian ryegrass (Lolium multiflorum), rigid ryegrass (Lolium rigidum), annual ryegrass (Lolium multiflorum subsp. Gaudini)", "assay": "Post-emergent Test III, herbicidal activity in wheat and barley", "assay_type": "in vivo", "conditions": "probit analysis, 21 days after application", "how_it_was_run": "as §1"}, "[7]": {"tested_on": "MATSS: scented mayweed (Matricaria chamomilla), pineappleweed (Matricaria matricarioides)", "assay": "Post-emergent Test III, herbicidal activity in wheat and barley", "assay_type": "in vivo", "how_it_was_run": "as §1"}, "[8]": {"tested_on": "SETVI: green foxtail (Setaria viridis)", "assay": "Post-emergent Test III, herbicidal activity in wheat and barley", "assay_type": "in vivo", "how_it_was_run": "as §1"}, "[9]": {"tested_on": "TRZSS: wheat, including spring and winter (Triticum aestivum)", "assay": "Post-emergent Test III, herbicidal activity in wheat and barley", "assay_type": "in vivo", "how_it_was_run": "as §1"}, "[10]": {"conditions": "probit analysis, dose for growth reduction of 50 percent, 21 days after application"}, "[11]": {"conditions": "probit analysis, dose for growth reduction of 80 percent, 21 days after application"}, "[12]": {"conditions": "probit analysis, dose for growth reduction of 20 percent, 21 days after application, crop"}},
  "data": [
    {"molecule": "COC(=O)c1nc(-c2ccc(Cl)c(F)c2)c(F)c(N)c1Cl", "note": "[Compound 216]", "values": [
      {"measurement": "pest or weed control at 35 g/ha", "setting": "[1]; 35 g ai/ha", "result": "0 to 29", "unit": "%"},
      {"measurement": "pest or weed control at 70 g/ha", "setting": "[1]; 70 g ai/ha", "result": "30 to 44", "unit": "%"},
      {"measurement": "pest or weed control at 140 g/ha", "setting": "[1]; 140 g ai/ha", "result": "45 to 59", "unit": "%"},
      {"measurement": "pest or weed control at 35 g/ha", "setting": "[2]; Alopecurus myosuroides, post-emergence, 504 h, 35 g ai/ha, read-out: Visual Growth Reduction (%) 21 Days After Application ALOMY", "result": "45 to 59", "unit": "%"},
      {"measurement": "pest or weed control at 70 g/ha", "setting": "[2]; Alopecurus myosuroides, post-emergence, 504 h, 70 g ai/ha, read-out: Visual Growth Reduction (%) 21 Days After Application ALOMY", "result": "60 to 74", "unit": "%"},
      {"measurement": "pest or weed control at 140 g/ha", "setting": "[2]; Alopecurus myosuroides, post-emergence, 504 h, 140 g ai/ha, read-out: Visual Growth Reduction (%) 21 Days After Application ALOMY", "result": "75 to 84", "unit": "%"},
      {"measurement": "GR50 ALOMY", "setting": "[2]; [10]", "result": 54, "unit": "g ai/ha"},
      {"measurement": "GR80 ALOMY", "setting": "[2]; [11]", "result": ">140", "unit": "g ai/ha"},
      {"measurement": "pest or weed control at 35 g/ha", "setting": "[3]; Apera spica-venti, post-emergence, 504 h, 35 g ai/ha, read-out: Visual Growth Reduction (%) 21 Days After Application APESV", "result": "85 to 94", "unit": "%"},
      {"measurement": "pest or weed control at 70 g/ha", "setting": "[3]; Apera spica-venti, post-emergence, 504 h, 70 g ai/ha, read-out: Visual Growth Reduction (%) 21 Days After Application APESV", "result": "85 to 94", "unit": "%"},
      {"measurement": "pest or weed control at 140 g/ha", "setting": "[3]; Apera spica-venti, post-emergence, 504 h, 140 g ai/ha, read-out: Visual Growth Reduction (%) 21 Days After Application APESV", "result": "95 to 100", "unit": "%"},
      {"measurement": "GR50 APESV", "setting": "[3]; [10]", "result": 6, "unit": "g ai/ha"},
      {"measurement": "GR80 APESV", "setting": "[3]; [11]", "result": 20, "unit": "g ai/ha"},
      {"measurement": "pest or weed control at 35 g/ha", "setting": "[4]; Hordeum vulgare, post-emergence, 504 h, 35 g ai/ha, read-out: Visual Growth Reduction (%) 21 Days After Application HORSS", "result": "85 to 94", "unit": "%"},
      {"measurement": "pest or weed control at 70 g/ha", "setting": "[4]; Hordeum vulgare, post-emergence, 504 h, 70 g ai/ha, read-out: Visual Growth Reduction (%) 21 Days After Application HORSS", "result": "85 to 94", "unit": "%"},
      {"measurement": "pest or weed control at 140 g/ha", "setting": "[4]; Hordeum vulgare, post-emergence, 504 h, 140 g ai/ha, read-out: Visual Growth Reduction (%) 21 Days After Application HORSS", "result": "85 to 94", "unit": "%"},
      {"measurement": "GR20 HORSS", "setting": "[4]; [12]", "result": 1, "unit": "g ai/ha"},
      {"measurement": "pest or weed control at 35 g/ha", "setting": "[5]; Bassia scoparia, post-emergence, 504 h, 35 g ai/ha, read-out: Visual Growth Reduction (%) 21 Days After Application KCHSC", "result": "95 to 100", "unit": "%"},
      {"measurement": "pest or weed control at 70 g/ha", "setting": "[5]; Bassia scoparia, post-emergence, 504 h, 70 g ai/ha, read-out: Visual Growth Reduction (%) 21 Days After Application KCHSC", "result": "95 to 100", "unit": "%"},
      {"measurement": "pest or weed control at 140 g/ha", "setting": "[5]; Bassia scoparia, post-emergence, 504 h, 140 g ai/ha, read-out: Visual Growth Reduction (%) 21 Days After Application KCHSC", "result": "95 to 100", "unit": "%"},
      {"measurement": "GR50 KCHSC", "setting": "[5]; [10]", "result": 1, "unit": "g ai/ha"},
      {"measurement": "GR80 KCHSC", "setting": "[5]; [11]", "result": 2, "unit": "g ai/ha"},
      {"measurement": "pest or weed control at 35 g/ha", "setting": "LAMSS; post-emergence, 504 h, 35 g ai/ha, read-out: Visual Growth Reduction (%) 21 Days After Application LAMSS", "result": "95 to 100", "unit": "%"},
      {"measurement": "pest or weed control at 70 g/ha", "setting": "LAMSS; post-emergence, 504 h, 70 g ai/ha, read-out: Visual Growth Reduction (%) 21 Days After Application LAMSS", "result": "95 to 100", "unit": "%"},
      {"measurement": "pest or weed control at 140 g/ha", "setting": "LAMSS; post-emergence, 504 h, 140 g ai/ha, read-out: Visual Growth Reduction (%) 21 Days After Application LAMSS", "result": "95 to 100", "unit": "%"},
      {"measurement": "GR50 LAMSS", "setting": "LAMSS; [10]", "result": 1, "unit": "g ai/ha"},
      {"measurement": "GR80 LAMSS", "setting": "LAMSS; [11]", "result": 1, "unit": "g ai/ha"},
      {"measurement": "GR50 LOLSS", "setting": "[6]; dose for growth reduction of 50 percent", "result": 137, "unit": "g ai/ha"},
      {"measurement": "GR80 LOLSS", "setting": "[6]; dose for growth reduction of 80 percent", "result": ">140", "unit": "g ai/ha"},
      {"measurement": "pest or weed control at 35 g/ha", "setting": "[7]; Matricaria chamomilla, post-emergence, 504 h, 35 g ai/ha, read-out: Visual Growth Reduction (%) 21 Days After Application MATSS", "result": "75 to 84", "unit": "%"},
      {"measurement": "pest or weed control at 70 g/ha", "setting": "[7]; Matricaria chamomilla, post-emergence, 504 h, 70 g ai/ha, read-out: Visual Growth Reduction (%) 21 Days After Application MATSS", "result": "75 to 84", "unit": "%"},
      {"measurement": "pest or weed control at 140 g/ha", "setting": "[7]; Matricaria chamomilla, post-emergence, 504 h, 140 g ai/ha, read-out: Visual Growth Reduction (%) 21 Days After Application MATSS", "result": "85 to 94", "unit": "%"},
      {"measurement": "GR50 MATSS", "setting": "[7]; [10]", "result": 10, "unit": "g ai/ha"},
      {"measurement": "GR80 MATSS", "setting": "[7]; [11]", "result": 62, "unit": "g ai/ha"},
      {"measurement": "pest or weed control at 35 g/ha", "setting": "[8]; Setaria viridis, post-emergence, 504 h, 35 g ai/ha, read-out: Visual Growth Reduction (%) 21 Days After Application SETVI", "result": "60 to 74", "unit": "%"},
      {"measurement": "pest or weed control at 70 g/ha", "setting": "[8]; Setaria viridis, post-emergence, 504 h, 70 g ai/ha, read-out: Visual Growth Reduction (%) 21 Days After Application SETVI", "result": "75 to 84", "unit": "%"},
      {"measurement": "pest or weed control at 140 g/ha", "setting": "[8]; Setaria viridis, post-emergence, 504 h, 140 g ai/ha, read-out: Visual Growth Reduction (%) 21 Days After Application SETVI", "result": "85 to 94", "unit": "%"},
      {"measurement": "GR50 SETVI", "setting": "[8]; [10]", "result": 20, "unit": "g ai/ha"},
      {"measurement": "GR80 SETVI", "setting": "[8]; [11]", "result": 64, "unit": "g ai/ha"},
      {"measurement": "pest or weed control at 35 g/ha", "setting": "[9]; Triticum aestivum, post-emergence, 504 h, 35 g ai/ha, read-out: Visual Growth Reduction (%) 21 Days After Application TRZSS", "result": "75 to 84", "unit": "%"},
      {"measurement": "pest or weed control at 70 g/ha", "setting": "[9]; Triticum aestivum, post-emergence, 504 h, 70 g ai/ha, read-out: Visual Growth Reduction (%) 21 Days After Application TRZSS", "result": "85 to 94", "unit": "%"},
      {"measurement": "pest or weed control at 140 g/ha", "setting": "[9]; Triticum aestivum, post-emergence, 504 h, 140 g ai/ha, read-out: Visual Growth Reduction (%) 21 Days After Application TRZSS", "result": "85 to 94", "unit": "%"},
      {"measurement": "GR20 TRZSS", "setting": "[9]; [12]", "result": 1, "unit": "g ai/ha"}
    ]}
  ]
}
